Reference: US20220251116A1, “ALKYLBORONIC ACIDS AS ARGINASE INHIBITORS” (Guangdong Newopp Biopharmaceuticals Co., Ltd., priority 2019, published 2022)
Where a name gives a salt, the structure may show the parent alone. Read-outs that look alike come from different tables or passages of the source.

Legend:
[1] = target: recombinant human arginase 1 (Homo sapiens, UniProt P05089); test: Arginase inhibitory activity test, enzymatic assay based on urea measurement (Arg 1);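 also: enzyme incubated with L-arginine substrate and compound at 37 °C for 120 min, urea product detected colorimetrically by absorbance at 450 nm, background from wells lacking enzyme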
Protocol: (§1) An enzymatic assay with recombinant human arginases 1 or 2 was used to measure inhibitory activity of the compounds. The assay is based on urea measurement, which is a product of L-arginine enzymatic degradation.
(§2) Briefly, arginase and the substrate solution containing L-arginine were incubated in the absence or presence of varying concentrations of compounds at 37° C. for 120 min. For the background correction, only the substrate solution was added without arginase. The urea detection reagent from QuantiChrome™ Urea assay kit (BioAssay Systems, CA) was added to develop the color product. After 60 min at room temperature, the absorbance was measured at 450 nm with CLARIOstar (BMG LABTECH). Urea was used as the standard.

[2] = target: T1, recombinant human arginase 2 (Homo sapiens, UniProt P78540); test: Arginase inhibitory activity test, enzymatic assay based on urea measurement (Arg 2); assay type: biochemical; conditions: 37° C. for 120 min, urea detection, read-out: Arg 2 enzymatic potency
T1 sequence (P78540 23-354): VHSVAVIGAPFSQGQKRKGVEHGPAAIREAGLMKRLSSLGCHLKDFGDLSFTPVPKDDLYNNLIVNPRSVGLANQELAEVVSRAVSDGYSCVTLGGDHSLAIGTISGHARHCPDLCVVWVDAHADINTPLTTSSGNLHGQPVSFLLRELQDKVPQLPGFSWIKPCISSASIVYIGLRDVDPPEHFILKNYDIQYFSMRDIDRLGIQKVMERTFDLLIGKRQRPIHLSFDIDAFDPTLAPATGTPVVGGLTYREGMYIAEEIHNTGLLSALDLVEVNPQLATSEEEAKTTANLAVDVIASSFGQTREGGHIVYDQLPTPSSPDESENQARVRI
Excerpt: Urea was used as the standard.

[3] = target: T2, recombinant human arginase 1 (Homo sapiens, UniProt P05089); test: Arginase inhibitory activity test, enzymatic assay based on urea measurement (Arg 1); remark: listed apart in the source;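 also: enzyme incubated with L-arginine substrate and compound at 37 °C for 120 min, urea product detected colorimetrically by absorbance at 450 nm, background from wells lacking enzyme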
T2 sequence (P05089 1-322): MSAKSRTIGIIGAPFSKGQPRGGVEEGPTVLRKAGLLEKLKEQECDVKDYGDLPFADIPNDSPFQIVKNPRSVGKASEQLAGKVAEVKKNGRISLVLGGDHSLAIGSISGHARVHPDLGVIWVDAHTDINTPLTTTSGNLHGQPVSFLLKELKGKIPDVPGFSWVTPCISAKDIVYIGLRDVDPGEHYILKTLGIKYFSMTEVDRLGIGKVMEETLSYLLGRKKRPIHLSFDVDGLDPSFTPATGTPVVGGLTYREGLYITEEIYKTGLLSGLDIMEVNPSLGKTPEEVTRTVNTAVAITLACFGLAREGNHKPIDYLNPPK
Protocol: as §1, §2

Compound	IC50 [1] [nM]	IC50 [2] [nM]	IC50 [3] [nM]	IC50 ([3]; read-out: Arg 1 enzymatic potency, recombinant human arginase 1, 37° C. for 120 min, urea detection) [nM]
N[C@@H](CNS(=O)(=O)N1C[C@H](CCCB(O)O)[C@](N)(C(=O)O)C1)C(F)F (racemic)	100 to 1000	–	–	–
Nc1c(N2C[C@H](CCCB(O)O)[C@](N)(C(=O)O)C2)c(=O)c1=O (racemic) [Example 3, (rac)trans-3-amino-1-(2-amino-3,4-dioxocyclobut-1-en-1-yl)-4-(3-boronopropyl)pyrrolidine-3-carboxylic acid, (1:1) 2,2,2-trifluoroacetic acid salt]	–	100 to 1000	100 to 1000	–
N[C@@]1(C(=O)O)CN(S(=O)(=O)Nc2ccccn2)C[C@@H]1CCCB(O)O (racemic) [Example 4, (rac)trans-3-amino-4-(3-boronopropyl)-1-(N-(pyridin-2-yl)sulfamoyl)pyrrolidine-3-carboxylic acid compound with 2,2,2-trifluoroacetic acid (1:2)]	–	100 to 1000	100 to 1000	–
N[C@@]1(C(=O)O)CN(S(=O)(=O)Nc2cc[nH]n2)C[C@@H]1CCCB(O)O (racemic) [Example 6, (rac)trans-1-(N-(1H-pyrazol-3-yl)sulfamoyl)-3-amino-4-(3-boronopropyl)pyrrolidine-3-carboxylic acid, (1:2) 2,2,2-trifluoroacetic acid salt]	–	100 to 1000	100 to 1000	–
N=C(N)N1C[C@H](CCCB(O)O)[C@](N)(C(=O)O)C1 (racemic) [Example 37, rac-(trans)-3-amino-4-(3-boronopropyl)-1-carbamimidoylpyrrolidine-3-carboxylic acid, 2,2,2-trifluoroacetic acid salt (1:2)]	–	100 to 1000	100 to 1000	–
CCN(C1CNC1)S(=O)(=O)N1C[C@H](CCCB2O[C@H]3C[C@H]4C[C@H](C4(C)C)[C@@]3(C)O2)[C@](N)(C(=O)O)C1 [Example 75, (3R,4S)-3-amino-1-(N-(azetidin-3-yl)-N-ethylsulfamoyl)-4-(3-((3aR,4R,6R,7aS)-3a,5,5-trimethylhexahydro-4,6-methanobenzo[d][1,3,2]dioxaborol-2-yl)propyl)pyrrolidine-3-carboxylic acid]	–	–	< 100	–
(rac)trans-3-amino-1-(N-((S)-2-aminopropyl)sulfamoyl)-4-(3-boronopropyl)pyrrolidine-3-carboxylic acid (diastereomers), 2,2,2-trifluoroacetic acid salt (1:2) [Example 18]	–	–	–	100 to 1000

Further lines, with some results ahead:

IC50 [1] [nM]	IC50 [2] [nM]	IC50 [3] [nM]	Compound	IC50 ([3]; read-out: Arg 1 enzymatic potency, recombinant human arginase 1, 37° C. for 120 min, urea detection) [nM]
100 to 1000	–	–	CN(C[C@H](N)C(F)F)S(=O)(=O)N1C[C@H](CCCB(O)O)[C@](N)(C(=O)O)C1 (racemic)	–
–	100 to 1000	< 100	N[C@@]1(C(=O)O)CN(S(N)(=O)=O)C[C@@H]1CCCB(O)O (racemic) [Example 1, (rac)trans-3-amino-4-(3-boronopropyl)-1-sulfamoylpyrrolidine-3-carboxylic acid, (1:1) 2,2,2-trifluoroacetic acid salt]	–
–	< 100	< 100	NCCNS(=O)(=O)N1C[C@H](CCCB(O)O)[C@](N)(C(=O)O)C1 (racemic) [Example 5, (rac)trans-3-amino-1-(N-(2-aminoethyl)sulfamoyl)-4-(3-boronopropyl)pyrrolidine-3-carboxylic acid compound with 2,2,2-trifluoroacetic acid (1:2)]	–
–	< 100	< 100	CC(C)(N)CNS(=O)(=O)N1C[C@H](CCCB(O)O)[C@](N)(C(=O)O)C1 (racemic) [Example 25, (rac)-trans-3-amino-1-(N-(2-amino-2-methylpropyl)sulfamoyl)-4-(3-boronopropyl)pyrrolidine-3-carboxylic acid, (1:2) 2,2,2-trifluoroacetic acid salt]	–
–	< 100	< 100	CC(C)(CN)NS(=O)(=O)N1C[C@H](CCCB(O)O)[C@](N)(C(=O)O)C1 (racemic) [Example 26, (rac)-trans-3-amino-1-(N-(1-amino-2-methylpropan-2-yl)sulfamoyl)-4-(3-boronopropyl)pyrrolidine-3-carboxylic acid, (1:2) 2,2,2-trifluoroacetic acid salt]	–
–	100 to 1000	< 100	N[C@@]1(C(=O)O)CN(S(=O)(=O)N2CCNCC2)C[C@@H]1CCCB(O)O (racemic) [Example 30, (rac)-trans-3-amino-4-(3-boronopropyl)-1-(piperazin-1-ylsulfonyl)pyrrolidine-3-carboxylic acid, 2,2,2-trifluoroacetic acid salt (1:2)]	–
–	100 to 1000	< 100	NCC1(NS(=O)(=O)N2C[C@H](CCCB(O)O)[C@](N)(C(=O)O)C2)COC1 (racemic) [Example 31]	–
–	–	< 100	N[C@@]1(C(=O)O)CN(S(=O)(=O)N(CC2CC2)[C@H]2CCNC2)C[C@@H]1CCCB(O)O [Example 71, (3R,4S)-3-amino-4-(3-boronopropyl)-1-(N-(cyclopropylmethyl)-N-((S)-pyrrolidin-3-yl)sulfamoyl)pyrrolidine-3-carboxylic acid, 2,2,2-trifluoroacetic acid salt (1:2)]	–
–	–	< 100	N[C@@]1(C(=O)O)CN(S(=O)(=O)N(CC2CC2)[C@H]2CCCNC2)C[C@@H]1CCCB(O)O [Example 72, (3R,4S)-3-amino-4-(3-boronopropyl)-1-(N-(cyclopropylmethyl)-N-((S)-piperidin-3-yl)sulfamoyl)pyrrolidine-3-carboxylic acid, 2,2,2-trifluoroacetic acid salt (1:2)]	–
–	–	< 100	N[C@@]1(C(=O)O)CN(S(=O)(=O)N(CC2CC2)[C@@H]2CCCNC2)C[C@@H]1CCCB(O)O [Example 73, (3R,4S)-3-amino-4-(3-boronopropyl)-1-(N-(cyclopropylmethyl)-N-((R)-piperidin-3-yl)sulfamoyl)pyrrolidine-3-carboxylic acid, 2,2,2-trifluoroacetic acid salt (1:2)]	–
–	–	< 100	N[C@@]1(C(=O)O)CN(S(=O)(=O)N(CC2CC2)C2CCNCC2)C[C@@H]1CCCB(O)O [Example 74, (3R,4S)-3-amino-4-(3-boronopropyl)-1-(N-(cyclopropylmethyl)-N-(piperidin-4-yl)sulfamoyl)pyrrolidine-3-carboxylic acid, 2,2,2-trifluoroacetic acid salt (1:2)]	–
